Assay results reported in patent US10131657B2, “Bromodomain inhibitors” (AbbVie Inc., priority 2013, dated 2018).

test system: breast cancer cell line MX-1; experiment: MX-1 cell line proliferation assay, Method A; type: cell-based; conditions: Homo sapiens, MX1; MX-1 cells, 96-well, 72 hours, Cell Titer Glo; read-out: Cellular proliferation: EC50 Method A
In short: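 MX-1 breast cancer cells (5000/well) were attached overnight in RPMI 1640 with 10% FBS, then exposed for 3 days to compound at 0.0001–3 μM final. Cell Titer Glo luminescence was normalized to DMSO controls, and EC50s were obtained by sigmoidal fitting.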

Compound | EC50
Cn1cc(-c2cc(S(C)(=O)=O)ccc2Oc2cccc(NCc3ccc4c(c3)OCCO4)c2)c2cc[nH]c2c1=O [Example 76, 4-[2-{3-[(2,3-dihydro-1,4-benzodioxin-6-ylmethyl)amino]phenoxy}-5-(methylsulfonyl)phenyl]-6-methyl-1,6-dihydro-7H-pyrrolo[2,3-c]pyridin-7-one] | 49.9 nM
Cn1cc(-c2cc(S(C)(=O)=O)ccc2Oc2cccc(NCC3CCOC3)c2)c2cc[nH]c2c1=O (stereo not drawn) [Example 77, 6-methyl-4-[5-(methylsulfonyl)-2-{3-[(tetrahydrofuran-3-ylmethyl)amino]phenoxy}phenyl]-1,6-dihydro-7H-pyrrolo[2,3-c]pyridin-7-one] | 69.2 nM
Cn1cc(-c2cc(S(C)(=O)=O)ccc2Oc2cccc(NCC3CC3)c2)c2cc[nH]c2c1=O [Example 80, 4-[2-{3-[(cyclopropylmethyl)amino]phenoxy}-5-(methylsulfonyl)phenyl]-6-methyl-1,6-dihydro-7H-pyrrolo[2,3-c]pyridin-7-one] | 128 nM
CCS(=O)(=O)c1ccc(Oc2ccc(Cl)cc2C#CCN2CCOCC2)c(-c2cn(C)c(=O)c3[nH]ccc23)c1 [Example 82, 4-[2-{4-chloro-2-[3-(morpholin-4-yl)prop-1-yn-1-yl]phenoxy}-5-(ethylsulfonyl)phenyl]-6-methyl-1,6-dihydro-7H-pyrrolo[2,3-c]pyridin-7-one] | 221 nM
CCS(=O)(=O)c1ccc(Oc2ccc(Cl)cc2CCCN2CCOCC2)c(-c2cn(C)c(=O)c3[nH]ccc23)c1 [Example 83, 4-[2-{4-chloro-2-[3-(morpholin-4-yl)propyl]phenoxy}-5-(ethylsulfonyl)phenyl]-6-methyl-1,6-dihydro-7H-pyrrolo[2,3-c]pyridin-7-one] | 89.9 nM
Cn1cc(-c2cc(S(C)(=O)=O)ccc2NC2CCN(S(=O)(=O)c3ccccc3)CC2)c2cc[nH]c2c1=O [Example 84, 6-methyl-4-[5-(methylsulfonyl)-2-{[1-(phenylsulfonyl)piperidin-4-yl]amino}phenyl]-1,6-dihydro-7H-pyrrolo[2,3-c]pyridin-7-one] | 87.8 nM
CN(C)CC(=O)N1CCC(Nc2ccc(S(C)(=O)=O)cc2-c2cn(C)c(=O)c3[nH]ccc23)CC1 [Example 85, 4-[2-({1-[(dimethylamino)acetyl]piperidin-4-yl}amino)-5-(methylsulfonyl)phenyl]-6-methyl-1,6-dihydro-7H-pyrrolo[2,3-c]pyridin-7-one] | > 1000 nM
CC(=O)Nc1ccc(CN2CCC(Nc3ccc(S(C)(=O)=O)cc3-c3cn(C)c(=O)c4[nH]ccc34)CC2)cc1 [Example 87, N-{4-[(4-{[2-(6-methyl-7-oxo-6,7-dihydro-1H-pyrrolo[2,3-c]pyridin-4-yl)-4-(methylsulfonyl)phenyl]amino}piperidin-1-yl)methyl]phenyl}acetamide] | 325 nM
CN1CCN(CC(=O)N2CCC(Nc3ccc(S(C)(=O)=O)cc3-c3cn(C)c(=O)c4[nH]ccc34)CC2)CC1 [Example 96, 6-methyl-4-[2-({1-[(4-methylpiperazin-1-yl)acetyl]piperidin-4-yl}amino)-5-(methylsulfonyl)phenyl]-1,6-dihydro-7H-pyrrolo[2,3-c]pyridin-7-one] | > 1000 nM
Cn1cc(-c2cc(S(C)(=O)=O)ccc2NC2CCN(S(=O)(=O)Cc3ccccc3)CC2)c2cc[nH]c2c1=O [Example 101, 4-[2-{[1-(benzylsulfonyl)piperidin-4-yl]amino}-5-(methylsulfonyl)phenyl]-6-methyl-1,6-dihydro-7H-pyrrolo[2,3-c]pyridin-7-one] | 72.9 nM
COc1ccc(S(=O)(=O)N2CCC(Nc3ccc(S(C)(=O)=O)cc3-c3cn(C)c(=O)c4[nH]ccc34)CC2)cc1 [Example 104, 4-[2-({1-[(4-methoxyphenyl)sulfonyl]piperidin-4-yl}amino)-5-(methylsulfonyl)phenyl]-6-methyl-1,6-dihydro-7H-pyrrolo[2,3-c]pyridin-7-one] | 176 nM
Cn1cc(-c2cc(S(C)(=O)=O)ccc2N[C@H]2CC[C@H](NCc3cccs3)CC2)c2cc[nH]c2c1=O [Example 107, 6-methyl-4-[5-(methylsulfonyl)-2-({trans-4-[(thiophen-2-ylmethyl)amino]cyclohexyl}amino)phenyl]-1,6-dihydro-7H-pyrrolo[2,3-c]pyridin-7-one] | 23.5 nM
CC(=O)Nc1ccc(CN[C@H]2CC[C@H](Nc3ccc(S(C)(=O)=O)cc3-c3cn(C)c(=O)c4[nH]ccc34)CC2)cc1 [Example 108, N-(4-{[(trans-4-{[2-(6-methyl-7-oxo-6,7-dihydro-1H-pyrrolo[2,3-c]pyridin-4-yl)-4-(methylsulfonyl)phenyl]amino}cyclohexyl)amino]methyl}phenyl)acetamide] | 299 nM
Cn1cc(-c2cc(S(C)(=O)=O)ccc2N[C@H]2CC[C@H](NCc3ccc(F)cc3F)CC2)c2cc[nH]c2c1=O [Example 109, 4-[2-({trans-4-[(2,4-difluorobenzyl)amino]cyclohexyl}amino)-5-(methylsulfonyl)phenyl]-6-methyl-1,6-dihydro-7H-pyrrolo[2,3-c]pyridin-7-one] | 18.1 nM
Cn1cc(-c2cc(S(C)(=O)=O)ccc2N[C@H]2CC[C@H](NCc3ccc4ccccc4c3)CC2)c2cc[nH]c2c1=O [Example 110, 6-methyl-4-[5-(methylsulfonyl)-2-({trans-4-[(naphthalen-2-ylmethyl)amino]cyclohexyl}amino)phenyl]-1,6-dihydro-7H-pyrrolo[2,3-c]pyridin-7-one] | 10.4 nM
COCCN[C@H]1CC[C@H](Nc2ccc(S(C)(=O)=O)cc2-c2cn(C)c(=O)c3[nH]ccc23)CC1 [Example 111, 4-[2-({trans-4-[(2-methoxyethyl)amino]cyclohexyl}amino)-5-(methylsulfonyl)phenyl]-6-methyl-1,6-dihydro-7H-pyrrolo[2,3-c]pyridin-7-one] | 156 nM
CSCCCN[C@H]1CC[C@H](Nc2ccc(S(C)(=O)=O)cc2-c2cn(C)c(=O)c3[nH]ccc23)CC1 [Example 112, 6-methyl-4-{2-[(trans-4-{[3-(methylsulfanyl)propyl]amino}cyclohexyl)amino]-5-(methylsulfonyl)phenyl}-1,6-dihydro-7H-pyrrolo[2,3-c]pyridin-7-one] | 142 nM
Cn1cc(-c2cc(S(C)(=O)=O)ccc2N[C@H]2CC[C@H](NCc3ccc(Cl)cc3)CC2)c2cc[nH]c2c1=O [Example 113, 4-[2-({trans-4-[(4-chlorobenzyl)amino]cyclohexyl}amino)-5-(methylsulfonyl)phenyl]-6-methyl-1,6-dihydro-7H-pyrrolo[2,3-c]pyridin-7-one] | 19.5 nM
Cn1cc(-c2cc(S(C)(=O)=O)ccc2Oc2ccc(F)cc2F)c2cc(CN3CCN(c4nccs4)CC3)[nH]c2c1=O [Example 114, 4-[2-(2,4-difluorophenoxy)-5-(methylsulfonyl)phenyl]-6-methyl-2-{[4-(1,3-thiazol-2-yl)piperazin-1-yl]methyl}-1,6-dihydro-7H-pyrrolo[2,3-c]pyridin-7-one] | 762 nM
Cn1cc(-c2cc(S(C)(=O)=O)ccc2Oc2ccc(F)cc2F)c2cc(CN3CCN(C4CC4)CC3)[nH]c2c1=O [Example 115, 2-[(4-cyclopropylpiperazin-1-yl)methyl]-4-[2-(2,4-difluorophenoxy)-5-(methylsulfonyl)phenyl]-6-methyl-1,6-dihydro-7H-pyrrolo[2,3-c]pyridin-7-one] | 411 nM
Cn1cc(-c2cc(S(C)(=O)=O)ccc2Oc2ccc(F)cc2F)c2cc(CN3CCN(C4CCOCC4)CC3)[nH]c2c1=O [Example 116, 4-[2-(2,4-difluorophenoxy)-5-(methylsulfonyl)phenyl]-6-methyl-2-{[4-(tetrahydro-2H-pyran-4-yl)piperazin-1-yl]methyl}-1,6-dihydro-7H-pyrrolo[2,3-c]pyridin-7-one] | 183 nM
CCS(=O)(=O)c1ccc(Oc2ccc(F)cc2F)c(-c2cn(C)c(=O)c3[nH]c(-c4ccnn4-c4ccccc4)cc23)c1 [Example 117, 4-[2-(2,4-difluorophenoxy)-5-(ethylsulfonyl)phenyl]-6-methyl-2-(1-phenyl-1H-pyrazol-5-yl)-1,6-dihydro-7H-pyrrolo[2,3-c]pyridin-7-one] | 249 nM
CCNC(=O)c1cc2c(-c3cc(S(=O)(=O)CC)ccc3Oc3c(C)cccc3NCC3CC3)cn(C)c(=O)c2[nH]1 [Example 119, 4-[2-{2-[(cyclopropylmethyl)amino]-6-methylphenoxy}-5-(ethylsulfonyl)phenyl]-N-ethyl-6-methyl-7-oxo-6,7-dihydro-1H-pyrrolo[2,3-c]pyridine-2-carboxamide] | 1510 nM
CN1CCC(N2CCN(Cc3cc4c(-c5cc(S(C)(=O)=O)ccc5Oc5ccc(F)cc5F)cn(C)c(=O)c4[nH]3)CC2)CC1 [Example 125, 4-[2-(2,4-difluorophenoxy)-5-(methylsulfonyl)phenyl]-6-methyl-2-{[4-(1-methylpiperidin-4-yl)piperazin-1-yl]methyl}-1,6-dihydro-7H-pyrrolo[2,3-c]pyridin-7-one] | 606 nM
Cn1cc(-c2cc(S(C)(=O)=O)ccc2Oc2ccc(F)cc2F)c2cc(CN3CCOCC3c3ccco3)[nH]c2c1=O (stereo not drawn) [Example 127, 4-[2-(2,4-difluorophenoxy)-5-(methylsulfonyl)phenyl]-2-{[3-(furan-2-yl)morpholin-4-yl]methyl}-6-methyl-1,6-dihydro-7H-pyrrolo[2,3-c]pyridin-7-one] | 128 nM
Cc1cc(C)n(C2CN(Cc3cc4c(-c5cc(S(C)(=O)=O)ccc5Oc5ccc(F)cc5F)cn(C)c(=O)c4[nH]3)C2)n1 [Example 129, 4-[2-(2,4-difluorophenoxy)-5-(methylsulfonyl)phenyl]-2-{[3-(3,5-dimethyl-1H-pyrazol-1-yl)azetidin-1-yl]methyl}-6-methyl-1,6-dihydro-7H-pyrrolo[2,3-c]pyridin-7-one] | 249 nM
Cn1cc(-c2cc(S(C)(=O)=O)ccc2Oc2ccc(F)cc2F)c2cc(CN3CCC(N4CCOCC4)CC3)[nH]c2c1=O [Example 130, 4-[2-(2,4-difluorophenoxy)-5-(methylsulfonyl)phenyl]-6-methyl-2-{[4-(morpholin-4-yl)piperidin-1-yl]methyl}-1,6-dihydro-7H-pyrrolo[2,3-c]pyridin-7-one] | 337 nM
